# Results reported in ChEMBL document CHEMBL1201862, “PubChem BioAssay data set” (2004).
#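 The compound was tested at five concentrations on cells cultured in 96-well plates, with a 48-hour exposure period. GI50 is the concentration that inhibits growth by half.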 Calls of active or inactive are those of the source. No stated cut-off is given here; in the data, active = GI50 up to about 1.1 µM and inactive = higher.
# Assays:
# Assay in all cases: inhibition of tumour cell growth, NCI panel, 48 h
# [1] = tested on: SF-295
# [2] = tested on: M14
# [3] = tested on: OVCAR-3
# [4] = tested on: DU-145
# [5] = tested on: K562
# [6] = tested on: NCI-H226
# [7] = tested on: SK-MEL-5
# [8] = tested on: TK-10
# [9] = tested on: SNB-19
# [10] = tested on: MCF7
# [11] = tested on: HL-60
# [12] = tested on: OVCAR-4
# [13] = tested on: SW-620
# [14] = tested on: A549
# [15] = tested on: PC-3
# [16] = tested on: CCRF-CEM
# [17] = tested on: XF498
# [18] = tested on: DMS-114
# [19] = tested on: LXFL 529
# [20] = tested on: DLD-1
# [21] = tested on: A498
# [22] = tested on: UACC-62
# [23] = tested on: HCC 2998
# [24] = tested on: OVCAR-5
# [25] = tested on: HCT-15
# [26] = tested on: KM12
# [27] = tested on: NCI-H23
# [28] = tested on: OVCAR-8
# [29] = tested on: NCI-H460
# [30] = tested on: SR
# [31] = tested on: SN12C
# [32] = tested on: COLO 205
# [33] = tested on: KM-20L2
# [34] = tested on: RPMI-8226
# [35] = tested on: Malme-3M
# [36] = tested on: SF-268
# [37] = tested on: HCT-116
# [38] = tested on: HOP-92
# [39] = tested on: SK-OV-3
# [40] = tested on: RXF 393
# [41] = tested on: HT-29
# [42] = tested on: M19-MEL
# [43] = tested on: MDA-MB-231
# [44] = tested on: ACHN
# [45] = tested on: U-251
# [46] = tested on: LOX IMVI
# [47] = tested on: SK-MEL-2
# [48] = tested on: 786-0
# [49] = tested on: IGROV-1
# [50] = tested on: EKVX
# [51] = tested on: HOP-62
# [52] = tested on: SF-539
# [53] = tested on: CAKI-1
# [54] = tested on: SK-MEL-28
# [55] = tested on: Hs-578T
# [56] = tested on: NCI-H522
# [57] = tested on: MDA-MB-435
# [58] = tested on: UO-31
# [59] = tested on: NCI/ADR-RES
# [60] = tested on: UACC-257
# [61] = tested on: T47D
# [62] = tested on: MDA-N
compound,measurement,setting,value
COc1cc(/C=C2/C(=O)N(C(=O)c3ccccc3O)N=C2C)ccc1O,GI50,[1],214 nM (active)
same,GI50,[2],698 nM (active)
same,GI50,[3],400 nM (active)
same,GI50,[4],658 nM (active)
same,GI50,[5],104 nM (active)
same,GI50,[6],701 nM (active)
same,GI50,[7],274 nM (active)
same,GI50,[8],5.4 µM (inactive)
same,GI50,[9],123 nM (active)
same,GI50,[10],514 nM (active)
same,GI50,[11],536 nM (active)
same,GI50,[12],1.28 µM (inactive)
same,GI50,[13],1.36 µM (inactive)
same,GI50,[14],358 nM (active)
same,GI50,[15],802 nM (active)
same,GI50,[16],201 nM (active)
same,GI50,[17],72.3 nM (active)
same,GI50,[18],171 nM (active)
same,GI50,[19],51.5 nM (active)
same,GI50,[20],60.3 nM (active)
same,GI50,[21],77.1 nM (active)
same,GI50,[22],51.8 nM (active)
same,GI50,[23],4.65 µM (inactive)
same,GI50,[24],6.46 µM (inactive)
same,GI50,[25],406 nM
same,GI50,[26],202 nM (active)
same,GI50,[27],277 nM (active)
same,GI50,[28],352 nM (active)
same,GI50,[29],161 nM (active)
same,GI50,[30],206 nM (active)
same,GI50,[31],719 nM (active)
same,GI50,[32],18.9 µM (inactive)
same,GI50,[33],18.5 µM (inactive)
same,GI50,[34],1.06 µM (active)
same,GI50,[35],430 nM (active)
same,GI50,[36],230 nM (active)
same,GI50,[37],95.7 nM (active)
same,GI50,[38],143 nM (active)
same,GI50,[39],223 nM (active)
same,GI50,[40],62.8 nM (active)
same,GI50,[41],9.55 µM (inactive)
same,GI50,[42],653 nM (active)
same,GI50,[43],> 100 µM (inactive)
same,GI50,[44],123 nM (active)
same,GI50,[45],144 nM (active)
same,GI50,[46],465 nM (active)
same,GI50,[47],1.01 µM (active)
same,GI50,[48],421 nM (active)
same,GI50,[49],123 nM (active)
same,GI50,[50],586 nM (active)
same,GI50,[51],1.77 µM (inactive)
same,GI50,[52],140 nM (active)
same,GI50,[53],217 nM (active)
same,GI50,[54],34.4 µM (inactive)
same,GI50,[55],272 nM (active)
same,GI50,[56],593 nM (active)
same,GI50,[57],409 nM (active)
same,GI50,[58],170 nM (active)
same,GI50,[59],596 nM (active)
same,GI50,[60],838 nM (active)
same,GI50,[61],404 nM (active)
same,GI50,[62],385 nM (active)
